Among the data in patent US20220226337A1 (Gilead Sciences, Inc., priority 2018, published 2022) are EC50 values, retold here.

The term EC50 denotes the concentration needed to bring the measured effect to its halfway point.

This experiment addresses T1, α4β7 integrin interaction with MadCAM-1 (RPMI8866 cells) (Homo sapiens, UniProt P13612+P26010).
T1 construct: α4β7 integrin expressing cells; endogenous in cells; host or cells: RPMI8866 cells
T1 sequence (P13612 34-1032): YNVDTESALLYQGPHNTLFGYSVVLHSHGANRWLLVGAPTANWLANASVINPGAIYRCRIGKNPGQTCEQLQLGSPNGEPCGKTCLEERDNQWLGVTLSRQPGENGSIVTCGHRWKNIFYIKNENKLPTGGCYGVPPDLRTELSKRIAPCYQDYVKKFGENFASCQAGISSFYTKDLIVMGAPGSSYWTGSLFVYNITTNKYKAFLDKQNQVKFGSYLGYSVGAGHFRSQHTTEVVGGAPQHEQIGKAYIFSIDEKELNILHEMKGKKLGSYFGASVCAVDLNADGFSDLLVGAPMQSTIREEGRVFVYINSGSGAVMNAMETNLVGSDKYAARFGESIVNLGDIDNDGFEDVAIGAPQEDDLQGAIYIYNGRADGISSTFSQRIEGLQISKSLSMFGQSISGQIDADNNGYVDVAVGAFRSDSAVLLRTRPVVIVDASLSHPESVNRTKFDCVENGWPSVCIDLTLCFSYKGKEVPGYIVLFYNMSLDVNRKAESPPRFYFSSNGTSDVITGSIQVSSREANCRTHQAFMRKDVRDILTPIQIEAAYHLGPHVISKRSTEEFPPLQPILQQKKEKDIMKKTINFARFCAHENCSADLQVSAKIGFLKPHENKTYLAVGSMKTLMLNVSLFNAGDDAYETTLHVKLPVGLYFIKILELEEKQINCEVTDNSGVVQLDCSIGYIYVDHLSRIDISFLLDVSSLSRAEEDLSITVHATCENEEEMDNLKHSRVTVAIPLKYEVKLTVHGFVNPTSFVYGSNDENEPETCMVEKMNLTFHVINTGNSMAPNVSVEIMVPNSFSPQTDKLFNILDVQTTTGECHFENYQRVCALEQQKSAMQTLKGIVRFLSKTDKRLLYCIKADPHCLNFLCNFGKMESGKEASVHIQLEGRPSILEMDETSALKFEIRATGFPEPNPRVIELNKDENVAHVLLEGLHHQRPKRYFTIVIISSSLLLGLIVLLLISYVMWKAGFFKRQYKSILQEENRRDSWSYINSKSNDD
T1 sequence (P26010 20-798): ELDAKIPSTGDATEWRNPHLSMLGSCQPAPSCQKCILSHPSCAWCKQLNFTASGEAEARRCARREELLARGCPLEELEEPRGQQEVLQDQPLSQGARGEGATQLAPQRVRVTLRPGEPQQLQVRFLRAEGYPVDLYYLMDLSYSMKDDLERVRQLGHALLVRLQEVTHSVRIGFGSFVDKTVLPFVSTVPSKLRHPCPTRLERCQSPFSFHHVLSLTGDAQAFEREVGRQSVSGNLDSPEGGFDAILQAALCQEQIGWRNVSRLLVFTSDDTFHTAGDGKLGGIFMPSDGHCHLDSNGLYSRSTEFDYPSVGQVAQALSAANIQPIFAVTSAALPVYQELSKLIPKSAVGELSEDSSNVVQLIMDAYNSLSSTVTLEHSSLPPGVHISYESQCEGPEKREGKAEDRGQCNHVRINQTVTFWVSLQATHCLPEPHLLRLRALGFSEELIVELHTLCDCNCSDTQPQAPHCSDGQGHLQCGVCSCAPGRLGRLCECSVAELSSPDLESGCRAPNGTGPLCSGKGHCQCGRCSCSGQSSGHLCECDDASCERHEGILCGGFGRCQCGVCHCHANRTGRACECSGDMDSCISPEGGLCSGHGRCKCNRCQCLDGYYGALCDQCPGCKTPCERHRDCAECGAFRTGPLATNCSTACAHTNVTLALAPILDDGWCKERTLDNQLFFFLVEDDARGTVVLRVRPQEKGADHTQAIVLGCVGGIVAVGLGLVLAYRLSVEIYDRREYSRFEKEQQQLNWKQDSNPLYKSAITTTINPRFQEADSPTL
The experiment is described as follows: α4β7 Integrin Cell Capture Assay. The format is cell-based. As to conditions: capture of α4β7 integrin expressing RPMI8866 cells on recombinant MadCAM-1 extracellular domain-coated plate; 0.5 mM MnCl2. As to the method:
The potency of inhibitors in preventing α4β7 integrin interaction with MadCAM-1 was measured by monitoring the capture of α4β7 integrin expressing cells on a recombinant MadCAM-1 extracellular domain-coated plate. 384-well plates (Corning 3702) were coated with MadCAM-1 extracellular domain by dispensing 20 μL of MAdCAM-1 at 1.0 μg/mL per well and incubating overnight at 4° C. The plates were then washed with PBS and blocked with 3% BSA for 2 hours before being washed again. RPMI8866 cells were spun down and re-suspended in assay medium (DMEM+0.5% FBS+0.5 mM MnCl2) at a density of 0.5×10^6 cells/mL. The cells were then dispensed (60 μL/well) to a 384-well plate (Greiner 781280) that was previously spotted with 60 nL of test compound per well. The plates were incubated at 37° C. for 1 hour. 50 μL of cells were transferred to the blocked, MadCAM-1-coated plates and incubated for 30 minutes at 37° C. 10 μL of 12% glutaraldehyde containing Hoechst 33342 (0.06 mg/mL) was added to the cells (2% glutaraldehyde and 0.01 mg/mL final concentrations). The plates were incubated for 90 minutes at room temperature. The plates were then washed 3 times with 70 μL of PBS per well and imaged on a Cellomics ArrayScan instrument. The cells that were bound to the plate were counted and plotted against the compound concentration to determine the EC50 of the test compounds.
For the compound `CCOCc1cc(OC)c(-c2ccc(C[C@H](NC(=O)c3c(F)cc(NS(=O)(=O)c4ccc(-c5ccnc(F)c5)cc4)cc3F)C(=O)O)c3c2CCCO3)c(OC)c1` [Example 100, (S)-2-(2,6-difluoro-4-((4-(2-fluoropyridin-4-yl)phenyl)sulfonamido)benzamido)-3-(5-(4-(ethoxymethyl)-2,6-dimethoxyphenyl)chroman-8-yl)propanoic acid], the EC50 turned out to be 1670 pM.
The same measure for `O=C(N[C@@H](Cc1ccc(-c2cccc3c2OCCC3)c2c1CCCO2)C(=O)O)c1c(F)cccc1F` [Example 66, (S)-3-([8,8′-bichroman]-5-yl)-2-(2,6-difluorobenzamido)propanoic acid]: 120000 pM.
The same measure for `Cc1cc(C(F)(F)F)c(-c2ccc(C[C@H](NC(=O)c3c(F)cc(N[C@H](C)C(F)(F)F)cc3F)C(=O)O)c3c2OCCC3)c(=O)n1C` (single isomer, unassigned) [Example 42]: 1420 pM; for `O=C(N[C@@H](Cc1ccc(-c2c(Cl)cc(F)cc2Cl)c2c1[C@H]1C[C@H]1CO2)C(=O)O)c1c(Cl)cccc1Cl` (single isomer, unassigned) [Example 81]: 109000 pM.
As for `O=C(N[C@@H](Cc1ccc(-c2c(Cl)cc(F)cc2Cl)c2c1CCCO2)C(=O)O)c1c(F)cccc1F` [Example 74, (S)-3-(8-(2,6-dichloro-4-fluorophenyl)chroman-5-yl)-2-(2,6-difluorobenzamido)propanoic acid], the figure is 79700 pM; as for `C[C@@H](Nc1cc(F)c(C(=O)N[C@@H](Cc2ccc(-c3c(Cl)cc(F)cc3Cl)c3c2CCCO3)C(=O)O)c(F)c1)C(F)(F)F` [Example 50, (S)-3-(8-(2,6-dichloro-4-fluorophenyl)chroman-5-yl)-2-(2,6-difluoro-4-(((R)-1,1,1-trifluoropropan-2-yl)amino)benzamido)propanoic acid], 43400 pM; as for `Cc1cc(N2CCOC[C@@H]2C(F)(F)F)cc(F)c1C(=O)N[C@@H](Cc1ccc(-c2cc3cnccc3n(C)c2=O)c2c1COC2)C(=O)O` [Example 189], 242 pM.
For `Cc1nc(-c2ccc(C[C@H](NC(=O)c3c(F)cc(N4C[C@H]5C[C@H]5[C@@H]4C(F)(F)F)cc3F)C(=O)O)c3c2OCCC3)c(=O)n(C)c1C` [Example 138], the EC50 is 964 pM.
Turning to `Cc1cc(-c2ccc(C[C@H](NC(=O)c3c(F)cc(N4CCOC[C@@H]4C(F)(F)F)cc3F)C(=O)O)c3c2OCCC3)c(=O)n(C)c1C` [Example 162], the EC50 amounted to 780 pM.
The same measure for `Cc1cc(N2CCOC[C@@H]2C(F)(F)F)cc(F)c1C(=O)N[C@@H](Cc1ccc(-c2c(C)nc(C)n(C)c2=O)c2c1CCCO2)C(=O)O` (atropisomer, axis not shown) [Example 119]: 89 pM; for `CC[C@@H](Nc1cc(F)c(C(=O)N[C@@H](Cc2ccc(-c3c(C(F)(F)F)cc(C)n(C)c3=O)c3c2CCC3)C(=O)O)c(F)c1)C(F)(F)F` [Example 201]: 630 pM.
The same measure for `Cc1nc(-c2ccc(C[C@H](NC(=O)c3c(F)cc(N4CCOC[C@@H]4C(F)(F)F)cc3F)C(=O)O)c3c2OCCC3)c(=O)n(C)c1C` [Example 108, (S)-2-(2,6-difluoro-4-((R)-3-(trifluoromethyl)morpholino)benzamido)-3-(8-(4,5,6-trimethyl-3-oxo-3,4-dihydropyrazin-2-yl)chroman-5-yl)propanoic acid]: 260 pM; for `Cc1cc(N2CCOC[C@@H]2C(F)(F)F)cc(F)c1C(=O)N[C@@H](Cc1ccc(-c2c(C)c(C(F)(F)F)cn(C)c2=O)c2c1COC2)C(=O)O` [Example 187]: 410 pM; for `Cn1ncc(C(F)(F)F)c(-c2ccc(C[C@H](NC(=O)c3c(F)cc(N4CCOC[C@@H]4C(F)(F)F)cc3F)C(=O)O)c3c2OCCC3)c1=O` [Example 132]: 193 pM.
With `COc1cc(F)c(F)cc1-c1ccc(C[C@H](NC(=O)c2c(Cl)cccc2Cl)C(=O)O)c2c1OCCC2` [Example 70, (S)-2-(2,6-dichlorobenzamido)-3-(8-(4,5-difluoro-2-methoxyphenyl)chroman-5-yl)propanoic acid], the EC50 amounted to 30500 pM.
As for `Cc1c(-c2ccc(C[C@H](NC(=O)c3c(F)cccc3F)C(=O)O)c3c2OCCC3)c(=O)n(C)c2ccccc12` (single isomer, unassigned) [Example 59], the figure is 1500 pM.
On to `Cc1cc(N2CCOC[C@@H]2C(F)(F)F)cc(F)c1C(=O)N[C@@H](Cc1ccc(-c2nc(C)c(C)n(C)c2=O)c2c1CCCO2)C(=O)O` [Example 165], for which the EC50 stood at 250 pM.
For the compound `COc1cc(C)n(C)c(=O)c1-c1ccc(C[C@H](NC(=O)c2c(C)cc(N3CCOC[C@@H]3C(F)(F)F)cc2F)C(=O)O)c2c1CCC2` [Example 198], the EC50 worked out at 81 pM.
Consider `CCc1nc(-c2ccc(C[C@H](NC(=O)c3c(F)cccc3F)C(=O)O)c3c2OCCO3)c(C(F)(F)F)c2ccccc12` [Example 3], for which the EC50 is 6490 pM.
The same measure for `COc1cc(C)n(C)c(=O)c1-c1ccc(C[C@H](NC(=O)c2c(F)cc(N[C@H](C)C(F)(F)F)cc2F)C(=O)O)c2c1OCCC2` [Example 48, (S)-2-(2,6-difluoro-4-(((R)-1,1,1-trifluoropropan-2-yl)amino)benzamido)-3-(8-(4-methoxy-1,6-dimethyl-2-oxo-1,2-dihydropyridin-3-yl)chroman-5-yl)propanoic acid]: 1230 pM; for `Cn1c(=O)c(-c2ccc(C[C@H](NC(=O)c3c(F)cccc3F)C(=O)O)c3c2OCCO3)cc2ccccc21` [Example 1, (S)-2-(2,6-difluorobenzamido)-3-(8-(1-methyl-2-oxo-1,2-dihydroquinolin-3-yl)-2,3-dihydrobenzo[b][1,4]dioxin-5-yl)propanoic acid]: 11000 pM.
The same measure for `Cc1cc(N2CCOC[C@@H]2C(F)(F)F)cc(F)c1C(=O)N[C@@H](Cc1ccc(-c2cc(C)c(C)n(C)c2=O)c2c1CCCO2)C(=O)O` [Example 155]: 358 pM.
For the compound `Cc1cc(N2CCOC[C@@H]2C(F)(F)F)cc(F)c1C(=O)N[C@@H](Cc1ccc(-c2c(N3CCC3)cc(C)n(C)c2=O)c2c1CCCO2)C(=O)O` [Example 145], the EC50 was found to be 714 pM.
Take `Cc1c(C)c(C)n(C)c(=O)c1-c1ccc(C[C@H](NC(=O)c2c(F)cc(N3CCOC[C@@H]3C(F)(F)F)cc2F)C(=O)O)c2c1OCCC2` [Example 154]: the EC50 came out at 358 pM.
The same measure for `Cc1nc(-c2ccc(C[C@@H](C(=O)O)N(C)C(=O)c3c(F)cc(N4CCOC[C@@H]4C(F)(F)F)cc3F)c3c2OCCC3)c(=O)n(C)c1C` [Example 125]: 94900 pM.
